In patent US20160238590A1, “COMPOSITIONS AND METHODS RELATED TO OAT SENSITIVITY” (IMMUSANT, INC., priority 2013, published 2016):
Where no end group is shown, it is not given here. [ ]: non-standard residue; d: D form. pGlu = O=C1CC[C@@H](C(=O)O)N1

Experiments:
Type in all cases: cell-based, human
Patient 14 TCC-01 = assay: IFN-γ ELISpot with T cell clone; settings: TCC Patient 14 TCC-01 (Table 5); mean no antigen 11.3, high background, SFU >25 considered as positive responses
Description: (§1) Peripheral blood mononuclear cells (PBMC) were isolated from heparinized whole blood using Ficoll-Paque™ Plus density-gradient centrifugation (GE Healthcare). IFN-γ ELISpot (Mabtech) was set up as previously described^8.
(§2) Isolation of TCC from CD patients was carried out as previously described^8. Briefly, CFSE-labeled PBMC were incubated with antigen for 7 days in IMDM supplemented with 5% heat-inactivated pooled human serum (PHS), 2 mM GlutaMAX™, 100 μM MEM non-essential amino acids (both from Gibco, Invitrogen), and 50 μM 2-mercaptoethanol (Sigma). Proliferated cells were single-cell sorted into 96-well plates containing IL-2, IL-4, anti-CD3 mAb, irradiated feeder cells (allogeneic PBMC and JY-EBV). TCC were expanded and maintained in IL-2 and IL-4 and tested for specificity by ELISpot with irradiated HLA-matched PBMC as antigen-presenting cells. Expanded clones were tested for HLA-DQ restriction, TCR Vbeta usage, and with lysine scans to work out minimal epitopes. See Table 1 below for TCC and epitope information.

Patient 2 TCC-01 = assay: IFN-γ ELISpot with T cell clone; settings: TCC Patient 2 TCC-01 (Table 5); mean no antigen 1.1
Description: as §1, §2

Patient 6 TCC-01 = assay: IFN-γ ELISpot with T cell clone; settings: TCC Patient 6 TCC-01 (Table 5); mean no antigen 2
Description: as §1, §2

PBMC = assay: IFN-γ ELISpot on PBMC of CD patients on day 6 after 3-day oats challenge; settings: after 3-day oats challenge
Description: Australian Caucasian HLA-DQ2.5^+ and/or HLA-DQ8^+ CD subjects were recruited by advertisement in the Coeliac Society of Victoria newsletter and all had biopsy-proven CD conforming to ESPGHAN criteria. Patients had been on strict gluten free diet for at least 4 weeks prior to commencing grain challenge. Patients underwent 3-day grain challenge with oats, barley, or combined wheat, barley, and rye muffins, and 6 days after commencement, blood was collected. Day 0 responses were not observed in the selection of patients tested, as described previously^8.
Oats challenge consisted of 100 g dry weight daily of one of three commercial brands of oats: one not tested for wheat contamination (Uncle Toby's; Oats #1), and two shown by R5 ELISA to contain less than 20 ppm wheat gluten (Tilquhilie Pudding; Oats #2 and Freedom Food; Oats #3). Barley challenge consisted of pearl barley (Ward McKenzie) cooked into a risotto (150 g dry weight daily) and the wheat challenge consisted of four 50 g slices of wheat bread daily (Baker's Delight white loaf cut to toasting thickness). The combined wheat, barley, and rye challenge consisted of muffins baked with wheat flour (White Wings), barley flour (Four Leaf Milling), and rye flour (Four Leaf Milling; 22-25 g dry weight each daily). A symptom diary based on a […] Likert scale was completed by participants daily from baseline until day 6.
Two avenin peptide libraries were utilized for epitope screening. These were designed using avenin sequences from GenBank and a customized algorithm, as previously described^9. The initial library consisted of 199 screening-grade 20 mers including all possible 12 mers (Mimotopes). This library was screened with and without tTG pre-treatment. The second library consisted of additional avenin sequences that were synthesized with glutamate substitution at sites predicted to be deamidated by published algorithms^10, 11 removing the requirement for tTG treatment. This library contained 369 screening-grade 20 mers, including all possible 12 mers (Pepscan). The second round avenin library contained wild-type and deamidated versions of the most immunogenic sequences (25 high quality 16 mers from Mimotopes). High quality peptides containing previously described immunogenic sequences from wheat, barley, and rye were used to test for cross-reactivity^8 (Pepscan). High quality hordein and avenin peptides for TCC testing and biochemical studies were ordered from Pepscan, Mimotopes, or GL Biochem.
as §1

Substance	IFN-γ ELISpot response (raw SFU) (Patient 14 TCC-01)	IFN-γ ELISpot response (raw SFU) (Patient 2 TCC-01)	IFN-γ ELISpot response (raw SFU) (Patient 6 TCC-01)	also measured
pEPFPEQPEQPYPQQ ([pGlu]PFPEQPEQPYPQQ) [wheat peptide, CAC11056.1 (53-66) [Q53 to pyroglutamate, Q57 to E, Q60 to E], reference compound]	19 SFU	150 SFU	1 SFU	–
SEQYQPYPEQQQPFVQ [avenin peptide, wild-type]	11 SFU	100 SFU	1 SFU	IFN-γ ELISpot response (raw SFU) (PBMC; patient P1, peptide 1 μg/ml): 2 SFU; IFN-γ ELISpot response (raw SFU) (PBMC; patient P1, peptide 10 μg/ml): 2 SFU; IFN-γ ELISpot response (raw SFU) (PBMC; patient P1, peptide 100 μg/ml): 4 SFU; IFN-γ ELISpot response (raw SFU) (PBMC; patient P2, peptide 1 μg/ml): 4 SFU; IFN-γ ELISpot response (raw SFU) (PBMC; patient P2, peptide 10 μg/ml): 1 SFU; IFN-γ ELISpot response (raw SFU) (PBMC; patient P2, peptide 100 μg/ml): 16 SFU; significant SFU as a percentage of maximal peptide SFU (PBMC; patient P2, peptide 100 μg/ml): * (*: 20-40%); IFN-γ ELISpot response (raw SFU) (PBMC; patient P3, peptide 1 μg/ml): 1 SFU; IFN-γ ELISpot response (raw SFU) (PBMC; patient P3, peptide 10 μg/ml): 2 SFU; IFN-γ ELISpot response (raw SFU) (PBMC; patient P3, peptide 100 μg/ml): 4 SFU; IFN-γ ELISpot response (raw SFU) (PBMC; patient P11, peptide 1 μg/ml): 0 SFU; IFN-γ ELISpot response (raw SFU) (PBMC; patient P11, peptide 10 μg/ml): 0 SFU; IFN-γ ELISpot response (raw SFU) (PBMC; patient P11, peptide 100 μg/ml): 0 SFU; IFN-γ ELISpot response (raw SFU) (PBMC; patient P12, peptide 1 μg/ml): 0 SFU; IFN-γ ELISpot response (raw SFU) (PBMC; patient P12, peptide 10 μg/ml): 1 SFU; IFN-γ ELISpot response (raw SFU) (PBMC; patient P12, peptide 100 μg/ml): 4 SFU; IFN-γ ELISpot response (raw SFU) (PBMC; patient P13, peptide 50 μg/ml): 1 SFU
pEPFPEQPEQPFPQP ([pGlu]PFPEQPEQPFPQP) [wheat peptide, ACO40292.1 (81-94) [Q81 to pyroglutamate, Q85 to E, Q88 to E], reference compound]	14 SFU	119 SFU	5 SFU	–
PQPYPEQPQPFPQQPP [barley peptide, 1103203B (39-54) [Q44 to E]]	12 SFU	292 SFU	69 SFU	–
FPEQPIPEQPQPYP [barley peptide, 1103203A (30-43) [Q232 to E, Q37 to E]]	66 SFU	1 SFU	92 SFU	–
FPEQPVPEQPQPYP [barley peptide, 1103203B (30-43) [Q32 to E, Q37 to E]]	78 SFU	2 SFU	99 SFU	–
